Source: patent US11969428B2, “Methods and pharmaceutical compositions for treating lymphoid malignancy” (priority 2011, dated 2024)

Experiments:
Assay in all cases: Ambit KinomeScan screening
Format in all cases: binding
Conditions in all cases: CAL-130 10 μM
[1] = target: T1, HIPK3 (Homo sapiens, UniProt Q9H422)
T1 construct: Ambit (KinomeScan screening)
Method in brief: (§1)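 Each kinase, carrying a tag, was challenged to bind immobilized bait while CAL-130 was present (10 μM). Reported numbers are percent of the control signal, lower indicating tighter compound binding.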

[2] = target: T2, MYO3B (Homo sapiens, UniProt Q8WXR4)
T2 construct: unspecified tag; purchased Ambit (KinomeScan screening panel)
Method in brief: as §1

[3] = target: T3, MET(Y1235D) (Homo sapiens, UniProt P08581, Y1235D)
T3 construct: unspecified tag ('tagged kinases'); purchased Ambit (KinomeScan screening)
Method in brief: as §1

[4] = target: T4, PRKX (Homo sapiens, UniProt P51817)
T4 construct: tag (kind not specified); purchased Ambit (KinomeScan screening service)
Method in brief: as §1

[5] = target: T5, MEK1 (Homo sapiens, UniProt Q02750)
T5 construct: purchased Ambit (KinomeScan screening)
Method in brief: as §1

[6] = target: T6, DYRK1A (Homo sapiens, UniProt Q13627)
T6 construct: unspecified tag ("tagged kinases"); purchased Ambit (KinomeScan screening service)
Method in brief: as §1

[7] = target: T7, MLK3 (Homo sapiens, UniProt Q16584)
T7 construct: unspecified tag ('tagged kinases'); purchased Ambit (KinomeScan screening)
Method in brief: as §1

[8] = target: T8, NLK (Homo sapiens, UniProt Q9UBE8)
T8 construct: purchased Ambit (KinomeScan screening service)
Method in brief: as §1

[9] = target: T9, HCK (Homo sapiens, UniProt P08631)
T9 construct: unspecified tag ('tagged kinases'); purchased Ambit (KinomeScan screening service)
Method in brief: as §1

[10] = target: T10, LCK (Homo sapiens, UniProt P06239)
T10 construct: unspecified tag ('tagged kinases'); purchased Ambit (KinomeScan screening service)
Method in brief: as §1

[11] = target: T11, PKN2 (Homo sapiens, UniProt Q16513)
T11 construct: purchased Ambit (KinomeScan screening service)
Method in brief: as §1

[12] = target: T12, PLK2 (Homo sapiens, UniProt Q9NYY3)
T12 construct: purchased Ambit (KinomeScan screening service)
Method in brief: as §1

[13] = target: T13, CSNK2A2 (Homo sapiens, UniProt P19784)
T13 construct: purchased Ambit (KinomeScan screening service)
Method in brief: as §1

[14] = target: T14, TNNI3K (Homo sapiens, UniProt Q59H18)
T14 construct: unspecified tag (tagged kinase); purchased Ambit (KinomeScan screening)
Method in brief: as §1

[15] = target: T15, CSNK1G3 (Homo sapiens, UniProt Q9Y6M4)
T15 construct: purchased Ambit (KinomeScan screening service)
Method in brief: as §1

[16] = target: T16, FLT1 (Homo sapiens, UniProt P17948)
T16 construct: unspecified tag; purchased Ambit (KinomeScan screening service)
Method in brief: as §1

[17] = target: T17, TRKB (Homo sapiens, UniProt Q16620)
T17 construct: tag, kind not specified; purchased Ambit (KinomeScan screening service)
Method in brief: as §1

[18] = target: T18, ERK8 (Homo sapiens, UniProt Q8TD08)
T18 construct: unspecified tag ("tagged kinases"); purchased Ambit (KinomeScan screening service)
Method in brief: as §1

[19] = target: T19, CAMK2G (Homo sapiens, UniProt Q13555)
T19 construct: purchased Ambit (KinomeScan screening)
Method in brief: as §1

[20] = target: T20, EPHA3 (Homo sapiens, UniProt P29320)
T20 construct: purchased Ambit (KinomeScan screening service)
Method in brief: as §1

[21] = target: T21, PAK3 (Homo sapiens, UniProt O75914)
T21 construct: purchased Ambit (KinomeScan screening service)
Method in brief: as §1

[22] = target: T22, EPHA6 (Homo sapiens, UniProt Q9UF33)
T22 construct: purchased Ambit (KinomeScan screening service)
Method in brief: as §1

[23] = target: T23, DAPK1 (Homo sapiens, UniProt P53355)
T23 construct: purchased Ambit (KinomeScan screening service)
Method in brief: as §1

[24] = target: T24, PAK1 (Homo sapiens, UniProt Q13153)
T24 construct: purchased Ambit (KinomeScan screening service)
Method in brief: as §1

[25] = target: T25, ADCK4 (Homo sapiens, UniProt Q96D53)
T25 construct: purchased Ambit (KinomeScan screening)
Method in brief: as §1

[26] = target: T26, WEE1 (Homo sapiens, UniProt P30291)
T26 construct: purchased Ambit (KinomeScan screening service)
Method in brief: as §1

[27] = target: T27, PIP5K2B (Homo sapiens, UniProt P78356)
T27 construct: unspecified tag; purchased Ambit (KinomeScan screening panel)
Method in brief: as §1

[28] = target: T28, PFTK1 (Homo sapiens, UniProt O94921)
T28 construct: unspecified tag ('tagged kinases'); purchased Ambit (KinomeScan screening)
Method in brief: as §1

[29] = target: T29, MLCK (Homo sapiens, UniProt Q32MK0)
T29 construct: unspecified tag ('tagged kinases'); purchased Ambit (KinomeScan screening)
Method in brief: as §1

[30] = target: T30, MST2 (Homo sapiens, UniProt Q13188)
T30 construct: unspecified tag ('tagged kinases'); purchased Ambit (KinomeScan screening)
Method in brief: as §1

[31] = target: T31, PIP5K1A (Homo sapiens, UniProt Q99755)
T31 construct: unspecified tag; purchased Ambit (KinomeScan screening panel)
Method in brief: as §1

[32] = target: T32, MAPKAPK5 (Homo sapiens, UniProt Q8IW41)
T32 construct: Ambit (KinomeScan screening)
Method in brief: as §1

[33] = target: T33, ABL2 (Homo sapiens, UniProt P42684)
T33 construct: unspecified tag ("tagged kinases"); purchased Ambit (KinomeScan screening)
Method in brief: as §1

[34] = target: T34, EGFR(L747-S752DEL, P753S) (Homo sapiens, UniProt P00533, DEL747-752/P753S)
T34 construct: unspecified tag; purchased Ambit (KinomeScan screening service)
Method in brief: as §1

[35] = target: T35, BTK (Homo sapiens, UniProt Q06187)
T35 construct: unspecified tag ("tagged kinases"); purchased Ambit (KinomeScan screening)
Method in brief: as §1

[36] = target: T36, INSR (Homo sapiens, UniProt P06213)
T36 construct: Ambit (KinomeScan screening)
Method in brief: as §1

Measured: Percent of Control Binding

T36 sequence (P06213 28-1382): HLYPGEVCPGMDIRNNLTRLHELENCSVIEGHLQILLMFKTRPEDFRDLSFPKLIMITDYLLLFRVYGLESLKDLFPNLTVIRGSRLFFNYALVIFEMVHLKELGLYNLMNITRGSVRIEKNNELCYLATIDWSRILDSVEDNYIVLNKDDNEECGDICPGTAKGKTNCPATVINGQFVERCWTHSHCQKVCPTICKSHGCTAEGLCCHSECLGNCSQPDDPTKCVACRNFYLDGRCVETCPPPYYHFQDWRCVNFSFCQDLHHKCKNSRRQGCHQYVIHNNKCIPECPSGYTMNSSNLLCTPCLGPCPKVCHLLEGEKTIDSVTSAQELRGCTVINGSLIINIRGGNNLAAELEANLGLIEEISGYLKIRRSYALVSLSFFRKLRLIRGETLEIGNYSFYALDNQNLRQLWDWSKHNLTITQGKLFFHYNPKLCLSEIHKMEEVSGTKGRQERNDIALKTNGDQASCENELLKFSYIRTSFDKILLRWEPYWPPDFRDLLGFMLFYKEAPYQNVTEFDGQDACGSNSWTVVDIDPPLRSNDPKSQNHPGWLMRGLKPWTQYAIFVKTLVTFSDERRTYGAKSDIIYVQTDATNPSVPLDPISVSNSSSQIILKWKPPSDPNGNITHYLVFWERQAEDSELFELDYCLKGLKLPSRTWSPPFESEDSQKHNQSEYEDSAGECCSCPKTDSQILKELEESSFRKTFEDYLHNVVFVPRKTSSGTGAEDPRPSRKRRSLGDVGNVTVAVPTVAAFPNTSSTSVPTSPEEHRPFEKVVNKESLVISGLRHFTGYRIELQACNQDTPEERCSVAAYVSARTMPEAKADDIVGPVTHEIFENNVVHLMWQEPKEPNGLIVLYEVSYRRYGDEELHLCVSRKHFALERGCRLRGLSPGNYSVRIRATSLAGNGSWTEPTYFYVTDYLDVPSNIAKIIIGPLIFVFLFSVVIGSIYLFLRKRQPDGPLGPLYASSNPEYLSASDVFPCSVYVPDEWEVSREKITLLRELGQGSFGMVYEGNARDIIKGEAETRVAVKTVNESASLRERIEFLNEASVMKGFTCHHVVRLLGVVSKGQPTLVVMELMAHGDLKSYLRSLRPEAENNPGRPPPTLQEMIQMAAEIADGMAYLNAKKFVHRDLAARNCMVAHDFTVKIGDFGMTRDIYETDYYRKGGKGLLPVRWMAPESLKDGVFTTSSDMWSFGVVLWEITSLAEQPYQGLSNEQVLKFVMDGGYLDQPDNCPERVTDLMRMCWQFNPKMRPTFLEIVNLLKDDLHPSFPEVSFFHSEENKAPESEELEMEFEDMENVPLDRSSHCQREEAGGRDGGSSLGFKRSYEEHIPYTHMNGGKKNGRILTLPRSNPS
T32 sequence (Q8IW41 whole entry): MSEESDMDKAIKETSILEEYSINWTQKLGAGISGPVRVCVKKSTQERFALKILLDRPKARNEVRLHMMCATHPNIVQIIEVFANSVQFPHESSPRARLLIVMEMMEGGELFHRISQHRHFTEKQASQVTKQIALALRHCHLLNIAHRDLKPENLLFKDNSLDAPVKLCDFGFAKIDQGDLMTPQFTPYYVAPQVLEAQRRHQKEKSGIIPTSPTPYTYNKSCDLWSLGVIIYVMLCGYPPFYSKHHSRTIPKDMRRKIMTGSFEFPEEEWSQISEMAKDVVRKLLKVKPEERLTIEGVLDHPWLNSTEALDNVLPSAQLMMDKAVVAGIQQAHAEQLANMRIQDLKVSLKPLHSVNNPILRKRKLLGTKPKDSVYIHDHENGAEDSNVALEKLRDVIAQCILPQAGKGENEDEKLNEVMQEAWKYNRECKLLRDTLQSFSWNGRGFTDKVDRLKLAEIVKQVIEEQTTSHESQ
T16 sequence (P17948 27-1338): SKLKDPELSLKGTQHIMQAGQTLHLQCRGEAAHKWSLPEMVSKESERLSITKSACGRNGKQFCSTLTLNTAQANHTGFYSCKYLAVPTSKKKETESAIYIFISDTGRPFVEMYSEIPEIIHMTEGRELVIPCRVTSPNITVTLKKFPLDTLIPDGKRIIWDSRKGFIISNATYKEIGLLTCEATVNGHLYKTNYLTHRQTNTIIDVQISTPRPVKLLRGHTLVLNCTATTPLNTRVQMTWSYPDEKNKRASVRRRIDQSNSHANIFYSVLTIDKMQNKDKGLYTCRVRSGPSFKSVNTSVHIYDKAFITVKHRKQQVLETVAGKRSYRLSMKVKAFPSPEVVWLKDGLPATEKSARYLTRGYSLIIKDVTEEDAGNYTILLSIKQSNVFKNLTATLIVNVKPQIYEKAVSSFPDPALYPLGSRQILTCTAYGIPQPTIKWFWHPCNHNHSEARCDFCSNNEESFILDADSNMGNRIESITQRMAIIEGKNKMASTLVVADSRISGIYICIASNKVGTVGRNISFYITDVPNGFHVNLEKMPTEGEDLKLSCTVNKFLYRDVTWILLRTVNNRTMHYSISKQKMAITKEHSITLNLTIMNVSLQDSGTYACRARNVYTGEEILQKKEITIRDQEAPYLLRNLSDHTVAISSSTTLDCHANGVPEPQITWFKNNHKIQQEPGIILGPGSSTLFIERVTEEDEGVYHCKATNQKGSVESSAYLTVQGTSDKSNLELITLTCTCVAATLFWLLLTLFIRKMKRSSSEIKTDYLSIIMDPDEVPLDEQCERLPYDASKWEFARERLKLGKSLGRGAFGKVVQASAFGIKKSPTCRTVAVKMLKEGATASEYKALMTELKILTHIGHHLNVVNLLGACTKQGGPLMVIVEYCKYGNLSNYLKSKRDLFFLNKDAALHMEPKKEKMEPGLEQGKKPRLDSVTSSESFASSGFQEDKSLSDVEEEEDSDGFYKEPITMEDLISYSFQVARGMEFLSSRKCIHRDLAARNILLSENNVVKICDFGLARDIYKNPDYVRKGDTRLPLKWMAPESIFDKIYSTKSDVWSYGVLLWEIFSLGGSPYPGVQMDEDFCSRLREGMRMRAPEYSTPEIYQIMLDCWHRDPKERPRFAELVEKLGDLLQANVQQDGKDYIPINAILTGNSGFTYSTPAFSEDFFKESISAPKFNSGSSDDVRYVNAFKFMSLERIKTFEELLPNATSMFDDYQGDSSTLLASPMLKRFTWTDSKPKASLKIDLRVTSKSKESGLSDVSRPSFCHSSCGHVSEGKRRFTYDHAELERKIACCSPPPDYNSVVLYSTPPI
T11 sequence (Q16513 whole entry): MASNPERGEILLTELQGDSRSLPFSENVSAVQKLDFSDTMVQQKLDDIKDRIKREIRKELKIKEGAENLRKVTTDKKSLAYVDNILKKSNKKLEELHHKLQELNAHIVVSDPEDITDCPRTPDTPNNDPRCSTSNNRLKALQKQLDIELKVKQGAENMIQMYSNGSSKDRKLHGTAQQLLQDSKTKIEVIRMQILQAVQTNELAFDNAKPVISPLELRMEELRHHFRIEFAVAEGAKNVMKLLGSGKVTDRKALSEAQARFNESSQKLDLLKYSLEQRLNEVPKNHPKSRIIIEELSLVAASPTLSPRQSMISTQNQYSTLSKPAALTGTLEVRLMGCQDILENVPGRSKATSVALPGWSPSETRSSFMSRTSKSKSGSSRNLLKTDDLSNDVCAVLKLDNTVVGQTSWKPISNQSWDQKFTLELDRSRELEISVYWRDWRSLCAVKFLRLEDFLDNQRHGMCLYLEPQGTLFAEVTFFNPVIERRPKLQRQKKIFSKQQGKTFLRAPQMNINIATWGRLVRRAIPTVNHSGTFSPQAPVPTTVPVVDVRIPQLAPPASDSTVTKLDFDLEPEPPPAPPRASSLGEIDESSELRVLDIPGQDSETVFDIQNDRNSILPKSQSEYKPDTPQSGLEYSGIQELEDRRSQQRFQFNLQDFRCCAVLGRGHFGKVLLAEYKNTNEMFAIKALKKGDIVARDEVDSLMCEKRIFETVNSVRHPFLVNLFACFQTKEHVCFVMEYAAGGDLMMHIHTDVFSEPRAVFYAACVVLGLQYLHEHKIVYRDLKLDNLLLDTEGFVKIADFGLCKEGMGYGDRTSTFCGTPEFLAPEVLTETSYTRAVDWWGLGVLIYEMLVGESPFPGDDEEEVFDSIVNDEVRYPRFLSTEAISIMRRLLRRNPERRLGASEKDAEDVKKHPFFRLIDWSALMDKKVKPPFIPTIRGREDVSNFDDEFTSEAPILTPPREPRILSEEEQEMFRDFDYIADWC
T21 sequence (O75914 whole entry): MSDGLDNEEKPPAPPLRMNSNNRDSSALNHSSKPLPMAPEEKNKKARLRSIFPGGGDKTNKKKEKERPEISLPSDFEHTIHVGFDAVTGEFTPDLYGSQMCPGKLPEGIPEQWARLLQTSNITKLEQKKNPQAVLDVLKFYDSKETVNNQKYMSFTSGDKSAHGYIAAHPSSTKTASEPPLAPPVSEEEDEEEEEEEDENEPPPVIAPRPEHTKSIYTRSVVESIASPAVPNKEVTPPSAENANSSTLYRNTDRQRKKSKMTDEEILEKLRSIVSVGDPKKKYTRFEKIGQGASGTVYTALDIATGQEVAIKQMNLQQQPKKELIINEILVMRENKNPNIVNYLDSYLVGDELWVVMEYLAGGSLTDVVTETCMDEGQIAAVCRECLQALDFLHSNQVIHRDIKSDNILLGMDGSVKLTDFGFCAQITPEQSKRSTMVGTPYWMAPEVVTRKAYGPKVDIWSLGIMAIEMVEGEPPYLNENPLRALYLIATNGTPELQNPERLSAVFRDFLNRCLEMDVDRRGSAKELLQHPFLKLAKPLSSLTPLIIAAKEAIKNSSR
T4 sequence (P51817 whole entry): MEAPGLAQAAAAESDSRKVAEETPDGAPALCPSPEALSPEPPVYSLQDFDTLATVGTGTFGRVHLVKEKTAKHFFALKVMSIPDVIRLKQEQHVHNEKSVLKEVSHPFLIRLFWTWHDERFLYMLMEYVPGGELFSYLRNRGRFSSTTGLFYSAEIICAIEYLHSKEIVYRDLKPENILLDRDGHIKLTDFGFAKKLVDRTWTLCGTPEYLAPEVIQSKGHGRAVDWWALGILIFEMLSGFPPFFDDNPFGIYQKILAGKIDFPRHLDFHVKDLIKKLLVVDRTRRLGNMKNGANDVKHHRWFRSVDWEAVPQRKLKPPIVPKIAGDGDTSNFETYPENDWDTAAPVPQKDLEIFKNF

Cc1ccccc1-n1c(C(C)Nc2nc(N)nc3nc[nH]c23)nc2cccc(C)c2c1=O (stereo not drawn) [CAL-130]
100%: all assays above
